Reference: patent US11896615B2, “Immunotherapy methods and compositions involving tryptophan metabolic pathway modulators” (Juno Therapeutics, Inc., priority 2016, dated 2024)
“Also recorded” adds a separate entry of the source.

Experiments:
[1] = test system: anti-CD19 CAR-expressing T cells; experiment: Effect of tryptophan metabolites on CAR T proliferation with IDO1- target cells; assay type: cell-based, human; conditions: 96 hours; for CAR T cell proliferation: CD19.Daudi target cells, 0 to 100 μM; for CAR T cell numbers (CD3+ cells per well): CD19.K562 target cells, 6.25 to 100 μM
Description: Cells were stained for surface expression of CD4 and CD8. Proliferation of T cell populations was determined by flow cytometry, based on the extent of dilution of the CellTrace™ violet dye. […] The number of CD3^+ cells per well was determined using CountBright beads.

[2] = test system: anti-CD19 CAR-expressing T cells; experiment: Proliferation of anti-CD19 CAR T cells co-cultured with IDO1+ CD19.A549 cells (CellTrace violet dilution, bead counts, microscopy); assay type: cell-based, human
Description: Cells were stained for expression of CD4 and CD8 and proliferation of T cell populations determined by flow cytometry, based on the extent of dilution of the CellTrace™ Violet dye.
Similar methods were used to assess proliferation of anti-CD19 CAR-expressing T cells generated from three different healthy donors following co-culture with CD19-expressing A549 target cells (CD19.A549).
The number of CAR T cells in each well was determined using CountBright Absolute Counting beads.
(§1) Similar methods were used to assess the effect of the IDO1 inhibitor on proliferation of CAR-expressing T cells following co-culture of anti-CD19 CAR-expressing cells with either IDO1^+ cells (A549.CD19) or IDO1^− cells (K562.CD19). […] The average number of CAR T cell divisions was calculated based on peaks in dye dilution, and proliferation of CD4^+ and CD8^+ subsets was compared.
Cells were visualized at 72 hours and 120 hours.

[3] = test system: anti-CD19 CAR-expressing T cells; experiment: Proliferation of anti-CD19 CAR T cells co-cultured with IDO1- target cells (CD19.Daudi, K562.CD19); assay type: cell-based, human; conditions: co-culture with IDO1- cells, various concentrations
Description: as §1

[4] = test system: anti-ROR1 CAR-expressing T cells; experiment: Proliferation of anti-ROR1 CAR T cells co-cultured with CD19.A549 cells; assay type: cell-based, human; conditions: 250 nM, E:T 3:1, 96 hours, compared to absence of inhibitor
From the text: Similar methods were used to assess the effect of the IDO1 inhibitor on proliferation of anti-ROR1 CAR-expressing T cells cultured in the presence of antigen-expressing target cells.

[5] = test system: anti-CD19 CAR-expressing T cells; experiment: Sustained expansion of anti-CD19 CAR T cells (% confluency over time); assay type: cell-based, human
Description: Expansion of anti-CD19 expressing CAR cells following co-culture with A549 adenocarcinoma human alveolar basal epithelial cells transduced with human CD19 (CD19.A549 cells) was assessed for over 10 days. […] Expansion was assessed based on % confluency in the culture as determined over time. […] The IDO1 inhibitor-promoted increase in expansion was sustained for more than 10 days in culture. The results were consistent with a conclusion that IDO-upregulation and/or IDO-dependent signaling can occur or be promoted following CAR-T antigen-specific activation and result in dampening of proliferation of the CAR-T cells, e.g., over a 5- or 10-day period, and that inhibition of IDO can in some contexts rescue such inhibition.

[6] = test system: anti-CD19 CAR-expressing T cells; experiment: Cytokine release in co-culture supernatants; assay type: cell-based, human; conditions: for GM-CSF level in supernatant / IFNγ level in supernatant / TNFα level in supernatant: epacadostat 10, 100 or 1000 nM or supplemental tryptophan, compared to no addition; for IL-2 levels in supernatant: for up to 72 hours, levels decreased at 96 hours
[7] = test system: CD4+ and CD8+ CAR-expressing T cells; experiment: CD25 surface expression on CD4+ and CD8+ CAR-expressing T cells (flow cytometry); assay type: cell-based, human
CD19.A549 = experiment: Cytolytic activity of anti-CD19 CAR T cells (Incucyte, NucRed-labeled targets); assay type: cell-based, human; conditions: 0 to 1000 nM, 0.25:1 E:T, up to approximately 340 hours
Description: Lysis of target cells was measured over time using the Incucyte quantitative cell analysis system (Essen BioScience) by assessing the staining intensity of cells for the NucRed dye.

CAR T cells = experiment: CAR T cell proliferation in the presence of IDO1+ HS-5 bystander cells; assay type: cell-based, human; conditions: with or without HS-5 cells, 96 hours, various concentrations
Description: Proliferation of CAR T cells in the presence of IDO1-expressing bone marrow stromal cells or an IDO1 inhibitor was determined.

[8] = test system: anti-CD19 CAR-expressing T cells; experiment: CAR T cell counts and proliferation with IDO1 inhibitor or supplemental tryptophan in co-culture with CD19.A549; assay type: cell-based, human; conditions: 5 μg/mL added every 24 hours, 96 hours with IDO1+ A549.CD19, compared to no treatment
Description: Proliferation was assessed by flow cytometry, and CAR+ T cell count in each well was determined.

CAR-expressing T cells = experiment: CAR T function in tryptophan-depleted media with supplemental tryptophan; assay type: cell-based, human
Description: Effects of tryptophan starvation on antigen-induced function of CAR-T cells were assessed. CAR-expressing T cells labeled with CellTrace™ violet were co-cultured with target cells (K562 human myelogenous leukemia target cells transduced with CD19 (CD19.K562)) that had been observed not to induce IDO1-expression, in tryptophan-depleted media, with or without the addition of various concentrations of supplemental tryptophan. Tryptophan-containing media was used as a control (Trp Control). Target cell count and proliferation (assessed by flow cytometry via CTV dye dilution; MFI=mean fluorescence intensity).
A similar study was carried out to assess effects of tryptophan-starvation, but in which CAR-mediated function was induced using an agonistic anti-idiotype antibody specific for the CAR as opposed to antigen-expressing target cells. Anti-CD19 CAR-expressing cells, generated substantially as described in Example 1, were stimulated for 96 hours using plate-bound anti-idiotypic agonistic antibody, in tryptophan-depleted media, alone or supplemented with various concentrations of tryptophan. The number of CD3^+ cells per well was determined. Representative results from exemplary studies are shown in FIG. 15D and FIG. 15E (results from three different donors). […]

[9] = test system: anti-CD19 CAR-expressing cells; experiment: Intracellular cytokines after re-exposure to antigen following tryptophan starvation; assay type: cell-based, human; conditions: tryptophan supplementation in the subsequent culture
Description: Effect of tryptophan starvation on CAR-T function (proliferation, cytokine production) following subsequent re-exposure to antigen was assessed. […] The cells were harvested, counted and re-cultured with fresh CD19-expressing A549 target cells (CD19.A549) in tryptophan-depleted media (media from the “no tx” cultures at 96 hours) with or without supplemented tryptophan. Intracellular levels of interferon-gamma (IFNγ) and interlekukin-2 (IL-2) were assessed by intracellular cytokine staining, and the percentage of CD4+ or CD8+ cells deemed positive for the given intracellular cytokine production was determined.

[10] = test system: anti-CD19 CAR-expressing T cells; experiment: Recovery from tryptophan starvation; assay type: cell-based, human; conditions: supplemental tryptophan added after starvation, out to 96 hours
Description: Anti-CD19 CAR-expressing T cells, generated as described in Example 1, were cultured in tryptophan starvation conditions (chemically defined tryptophan-free media) for 24, 48, 72 or 96 hours (24, 48, 72 or 96 hr Trp starv.). After tryptophan starvation for the indicated time, supplemental tryptophan was added to the cultures. The cells then were cultured in the presence of tryptophan until the cells were harvested at 24, 48, 72 or 96 hours. As a control, reflecting tryptophan sufficient conditions, cells were cultured in tryptophan-sufficient media for each respective time period (complete media). The number of CD3^+ cells per well was assessed. Intracellular production of interferon-gamma (IFNγ) and tumor necrosis factor alpha (TNFα) was assessed by intracellular cytokine staining, and the percentage of CD4+ or CD8+ cells positive for cytokine accumulation was determined.

CD19.A549 cells = experiment: IDO1 expression in CD19.A549 cells after IFNγ stimulation (flow cytometry); assay type: cell-based, human
Description: (§2) A549 adenocarcinoma human alveolar basal epithelial cells transduced with human CD19 (CD19.A549 cells, which may also referred to as A549.CD19 cells) were assessed for expression of indoleamine-pyrrole 2,3-dioxygenase 1 (IDO1) following stimulation with interferon-gamma (IFNγ). CD19.A549 cells were stimulated with IFNγ for 24 or 48 hours and IDO1 levels were assessed by flow cytometry using an anti-IDO antibody. […] Increased IDO1 expression was not detected in other CD19^+ tumor cell lines in this assay, including JeKo-1, Daudi, Raji and Nalm-6 cells, following incubation with IFNγ under similar conditions.
CD19.A549 cells were cultured with various concentrations of recombinant human IFNγ.

[11] = test system: JeKo-1, Daudi, Raji and Nalm-6 cells; experiment: IDO1 expression in other CD19+ tumor cell lines after IFNγ incubation; assay type: cell-based, human; conditions: incubation with IFNγ under similar conditions
Description: as §2

[12] = test system: HS-5 human bone marrow stromal cells; experiment: IDO1 expression in HS-5 bone marrow stromal cells after IFNγ; assay type: cell-based; conditions: 20 ng/mL recombinant human IFNγ, 24 hours
Description: Expression level of Indoleamine-Pyrrole 2,3-Dioxygenase 1 (IDO1) was determined in bone marrow stromal cells upon stimulation by interferon-gamma (IFNγ) or with co-incubation with CAR-expressing T cells. Bone marrow stromal cells are exemplary of bystander cells, e.g., non-tumor cells, present in the TME.
HS-5 human bone marrow stromal cells were stimulated with 20 ng/mL recombinant human IFNγ for 24 hours.

dendritic cells = experiment: IDO1 expression in dendritic cells after IFNγ and/or LPS stimulation; assay type: cell-based; conditions: dendritic cells (DC), 24 hours stimulation
Description: To assess whether myeloid cells present in the TME, including tumor-associated macrophages and dendritic cells, can be induced to express IDO1, the expression level of IDO1 in dendritic cells and macrophages upon stimulation by interferon-gamma (IFNγ) or lipopolysaccharide (LPS) was determined by flow cytometry. Dendritic cells were subject to monoculture with GM-CSF and interleukin-4 (IL-4), and macrophages were subject to monoculture with M-CSF, for 6 days. After monoculture, the cells were stimulated with IFNγ and/or LPS for 24 hours, and IDO1 expression was determined by flow cytometry.

[13] = supplemental tryptophan or 100 nM or 1000 nM epacadostat, co-culture with CD19.A549

Nc1c(O)cccc1C(=O)O [3-HAA, 3-hydroxyanthranilic acid]
CAR T cell proliferation [1]: did not inhibit CAR T cell proliferation
CAR T cell numbers (CD3+ cells per well) [1]: did not substantially affect CAR T cell numbers

Nc1ccccc1C(=O)C[C@H](N)C(=O)O [L-Kynurenine]
CAR T cell proliferation [1]: did not inhibit CAR T cell proliferation
CAR T cell numbers (CD3+ cells per well) [1]: did not substantially affect CAR T cell numbers

NS(=O)(=O)NCCNc1nonc1C(=NO)Nc1ccc(F)c(Br)c1 [epacadostat, 4-({2-[(aminosulfonyl)amino]ethyl}amino)-N-(3-bromo-4-fluorophenyl)-N′-hydroxy-1,2,5-oxadiazole-3-carboximidamide]
number of CAR T cells per well ([2]; 250 nM, 96 hours, three donors, compared to absence of inhibitor): higher number CAR T cells
CAR-expressing T cells visualized by microscopy ([2]; 1 μM, 120 hours, 1:1 E:T, compared to no inhibitor): large increase in CAR-expressing T cells
EC50 ([2]; Homo sapiens, co-culture with A549 cells (IDO1+), 1:1 E:T, read-out: estimated EC50 (CAR T proliferation)): ~223 nM
proliferation of CD4+ and CD8+ CAR-expressing T cells ([2]; co-culture with IDO1+ CD19.A549 cells, 96 hours, various concentrations): dose-dependent increase in proliferation; also recorded: increased proliferation
proliferation of CD4+ and CD8+ CAR-expressing T cells [3]: not when co-cultured with IDO1^− cells (Daudi)
number of CAR T cells [4]: higher number of CAR T cells
expansion of CAR-expressing T cells (% confluency) ([5]; 0 to 1000 nM, up to approximately 340 hours): increasing expansion of CAR-expressing T cells
duration of inhibitor-promoted increase in expansion ([5]; in culture with CD19.A549): over 10 days
TNFα production ([6]; 48 hours, 1:1 E:T with CD19.A549, various concentrations): increased TNFα production
GM-CSF level in supernatant [6]: increased level
IFNγ level in supernatant [6]: increased level
TNFα level in supernatant [6]: increased level
IL-2 levels in supernatant [6]: increased
CD25 surface expression (MFI) ([7]; 96 hours co-culture with IDO1+ CD19.A549 cells, 1:1 E:T): reduced
CD25 surface expression ([7]; 96 hours co-culture with IDO1- CD19.Daudi cells): not affected
CD25 surface expression (MFI) [7, 13]: reduced
NucRed dye intensity of target cells (AUC) (CD19.A549): dose-dependent reduction of NucRed dye intensity
proliferation of CAR T cells (CAR T cells): not substantially affected

N[C@@H](Cc1c[nH]c2ccccc12)C(=O)O [tryptophan]
GM-CSF level in supernatant [6]: increased level
IFNγ level in supernatant [6]: increased level
TNFα level in supernatant [6]: increased level
IL-2 levels in supernatant [6]: increased
CD25 surface expression (MFI) [7, 13]: reduced
proliferation of CAR-T cells [8]: restored proliferation of the CAR-T cells
inhibitory effect of tryptophan starvation on antigen-specific function of CAR T cells (CAR-expressing T cells; CD19.K562 target cells, tryptophan-depleted media): reversed
inhibition of CAR-mediated function by tryptophan starvation (CD3+ cells per well) (CAR-expressing T cells; plate-bound anti-idiotypic agonistic antibody, 96 hours): restored
reduction in cytokine production (IFNγ, IL-2) after re-encounter with target cells [9]: partially restored
proliferative capacity after tryptophan starvation [10]: did not completely restore proliferative capacity

IFNγ: interferon-gamma (IFNγ), recombinant human
IDO1 expression (CD19.A549 cells; IFNγ stimulation for 24 and 48 hours, compared to unstimulated cells): increased expression of endogenous IDO1
IDO1 expression (MFI) (CD19.A549 cells; various concentrations of recombinant human IFNγ): dose-responsive increase in IDO1 expression
IDO1 expression [11]: not detected
IDO1 expression [12]: increase of IDO1 expression
IDO1 expression (dendritic cells): induced IDO1 expression
